Data set [1] concerns Protein cereblon/Receptor-type tyrosine-protein kinase FLT3 (Homo sapiens), P36888+Q96SW2 [UNDEFINED MUTATION]. As to the kind of experiment: PROTAC activity at CRBN/FLT3-ITD mutant in human MOLM-13 cells assessed as protein degradation at 20 nM by Western blot analysis. In kind it is cell-based. The note with it: time <= 12.0 hrs, TDE = time-dependent effect. Background: Immunoblotting shows a protein as a band on a membrane.

A short description of data set [2]: Toxicity in NSG mouse xenografted with human MV4-11 cells expressing luciferase assessed as obvious adverse response at 1.25 to 10 mg/kg, po administered daily for 3 weeks. In kind it is organism-based. The note with it: in vivo, 504 h, dose 1.25-10 mg/kg. For orientation: Xenograft models place foreign cells or tissue in a host animal.
Data set [3] has as its system MV4-11. In words: Antitumor activity against human MV4-11 cells xenografted in nu/nu mouse assessed as decrease in Ki67 level at 1.25 to 10 mg/kg, po administered daily for 2 weeks by IHC analysis. Type of data set: functional, organism-based. The note with it: dose 1.25-10 mg/kg.
Data set [4] relates to MV4-11. As to the kind of experiment: Antitumor activity against human MV4-11 cells xenografted with nude mouse assessed as decrease in tumor growth at 120 mg/kg, po administered daily measured after 3 days. The note with it: time 3.0 day. In kind it is functional, organism-based.
A short description of data set [5]: Stability in dog liver microsomes assessed as intrinsic clearance. In kind it is ADME, Canis lupus familiaris, Microsome. The note with it: read-out: CLH. On the technique in general: Liver microsomes are a subcellular fraction often used to study metabolism.

Activity calls are given as the source filed them. The calls are words filed in the database; no cut-off is given here.

Sequence of Protein cereblon/Receptor-type tyrosine-protein kinase FLT3 (Homo sapiens), P36888+Q96SW2 [UNDEFINED MUTATION] (P36888 whole entry, looked up, change not shown): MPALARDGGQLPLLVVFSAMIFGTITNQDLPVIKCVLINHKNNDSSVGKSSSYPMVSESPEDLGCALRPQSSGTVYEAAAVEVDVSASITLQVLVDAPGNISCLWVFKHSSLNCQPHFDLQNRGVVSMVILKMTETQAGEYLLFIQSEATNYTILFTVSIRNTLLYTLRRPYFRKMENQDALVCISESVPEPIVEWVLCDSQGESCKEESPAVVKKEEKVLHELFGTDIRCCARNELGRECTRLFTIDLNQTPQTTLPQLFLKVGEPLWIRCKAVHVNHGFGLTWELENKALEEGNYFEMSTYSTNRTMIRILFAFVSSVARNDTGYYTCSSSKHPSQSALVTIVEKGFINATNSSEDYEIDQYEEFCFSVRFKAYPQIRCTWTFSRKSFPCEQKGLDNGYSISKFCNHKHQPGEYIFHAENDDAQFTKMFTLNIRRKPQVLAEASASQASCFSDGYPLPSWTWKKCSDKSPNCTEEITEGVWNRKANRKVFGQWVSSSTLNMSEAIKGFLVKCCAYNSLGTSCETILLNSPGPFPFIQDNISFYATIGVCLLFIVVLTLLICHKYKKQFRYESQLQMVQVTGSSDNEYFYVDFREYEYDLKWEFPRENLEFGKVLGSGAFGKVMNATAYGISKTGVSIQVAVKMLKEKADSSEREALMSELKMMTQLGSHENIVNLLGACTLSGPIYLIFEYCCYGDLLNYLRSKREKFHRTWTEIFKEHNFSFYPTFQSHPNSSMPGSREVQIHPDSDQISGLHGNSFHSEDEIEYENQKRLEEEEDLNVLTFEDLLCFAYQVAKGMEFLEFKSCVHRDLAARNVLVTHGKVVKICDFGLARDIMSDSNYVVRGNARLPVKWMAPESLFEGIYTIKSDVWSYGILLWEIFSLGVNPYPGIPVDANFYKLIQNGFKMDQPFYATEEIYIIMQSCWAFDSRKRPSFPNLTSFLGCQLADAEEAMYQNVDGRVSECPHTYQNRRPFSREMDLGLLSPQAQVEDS
Sequence of Protein cereblon/Receptor-type tyrosine-protein kinase FLT3 (Homo sapiens), P36888+Q96SW2 [UNDEFINED MUTATION] (Q96SW2 whole entry, looked up, change not shown): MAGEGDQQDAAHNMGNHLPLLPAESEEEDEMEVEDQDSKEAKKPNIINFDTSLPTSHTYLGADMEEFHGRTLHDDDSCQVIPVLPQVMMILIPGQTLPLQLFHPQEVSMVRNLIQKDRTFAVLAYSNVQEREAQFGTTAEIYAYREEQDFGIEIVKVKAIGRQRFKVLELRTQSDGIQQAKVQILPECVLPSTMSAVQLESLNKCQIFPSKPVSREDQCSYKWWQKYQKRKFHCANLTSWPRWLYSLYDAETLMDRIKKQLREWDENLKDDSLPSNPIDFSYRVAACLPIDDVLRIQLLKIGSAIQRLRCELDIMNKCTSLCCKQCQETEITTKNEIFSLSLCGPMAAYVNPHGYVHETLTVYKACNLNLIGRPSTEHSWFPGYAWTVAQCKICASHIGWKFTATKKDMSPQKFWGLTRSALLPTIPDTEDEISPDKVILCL

As for `Cc1c(NC(=O)CN2CCN(CC3CCN(c4ccc5c(c4)C(=O)N(C4CCC(=O)NC4=O)C5=O)CC3)CC2)c[nH]c1/C=C1\C(=O)Nc2ccc(F)cc21` (stereo not given), the Activity result was “Tde” in data set [1] and “Non-Toxic” in data set [2]. Also, the result in the data set with MV4-11 [3] and in the data set with MV4-11 [4] was Active. The CLint scaled in data set [5] came to 17.7 mL/min/kg.

(Values after ChEMBL document CHEMBL5543162, “Discovery of a Novel Orally Bioavailable FLT3-PROTAC Degrader for Efficient Treatment of Acute Myeloid Leukemia and Overcoming Resistance of FLT3 Inhibitors” (J Med Chem, 2024).)
